Patent US20180332790A1 (priority 2015, published 2018)
Values joined by “and” are separate entries in the source; they are usually repeats but may differ in a detail not shown here. Identical values can stand only once. “Also recorded” adds a separate entry of the source.

Assays:
[1] = tested on: maize; conditions: in vivo
[2] = tested on: maize; conditions: in vivo; remark: listed apart in the source

CCCCCCCC/C=C\CCCCCCCC(=O)O[C@H](COC(=O)CCCCCCCCCCCCCCCCC)COP(=O)(O)OCCN [1-stearyl-2-oleoyl-sn-phosphatidylethanolamine]
de novo haploid induction (in words) [1]: haploid inducing compound

CCCCC/C=C\C/C=C\C/C=C\C/C=C\CCCC(=O)OC [AAME, arachidonic acid methyl ester]
de novo haploid induction (in words) [1]: triggered de novo haploid induction

CCCCCCCCCCCCCCCCCC(=O)OC[C@H](COP(=O)([O-])OCC[N+](C)(C)C)OC(=O)CCCCCCCCCCCCCCCCC [DSPC, 1,2-distearoyl-sn-glycero-3-phosphatidyl choline]
de novo haploid formation (in words) [1]: achieved de novo haploid formation | de novo haploid induction (in words) [1]: triggered de novo haploid induction; also recorded: highly active

CCCCC/C=C\C/C=C\CCCCCCCC(=O)O [LLA, linoleic acid]
de novo haploid induction (in words) [1]: triggered de novo haploid induction | decrease in embryo abortion frequency compared to control buffer [2]: 2.9% | effect on embryo abortion and kernel formation in haploid inducer crosses (in words) [2]: reduces the rate of embryo abortion and increases the rate of kernel formation; also recorded: increase the rate of viable kernel formation by reducing fertilization failure and embryo abortion | effect on haploid induction rate / number of haploids in haploid inducer crosses (in words) [2]: boosted the haploid induction rate; also recorded: increase the number of haploids formed and/or the rate of haploid formation | increase in haploid induction rate compared to control buffer [2]: 1.5% | increase in haploids recovered per ear compared to control buffer [2]: 7.6 haploids per ear | increase in number of kernels per ear compared to control buffer [2]: 41 per ear

CCCCC/C=C\C/C=C\CCCCCCCC(=O)OCC [LLAEE, linoleic acid ethyl ester]
AVERAGE/EAR HIR [2]: 13.0% and 15.4% | AVERAGE/EAR haploids [2]: 23.1 and 27.9 | AVERAGE/EAR k. a. rate [2]: 29.9% and 33.0% | AVERAGE/EAR k. a. rate, vs control [2]: −3.7% and −2.9% | AVERAGE/EAR kernels [2]: 194.1 and 194.6 | AVERAGE/EAR kernels, vs control [2]: +43.3 | decrease in embryo abortion frequency compared to control buffer [2]: 3.7% | effect on embryo abortion and kernel formation in haploid inducer crosses (in words) [2]: reduces the rate of embryo abortion and increases the rate of kernel formation; also recorded: increase the rate of viable kernel formation by reducing fertilization failure and embryo abortion | effect on haploid induction rate / number of haploids in haploid inducer crosses (in words) [2]: boosted the haploid induction rate; also recorded: increase the number of haploids formed and/or the rate of haploid formation | increase in haploid induction rate compared to control buffer [2]: 2.4% | increase in haploids recovered per ear compared to control buffer [2]: over 8 haploids per ear | increase in number of kernels per ear compared to control buffer [2]: over 43 per ear

CCCCCCCC/C=C\CCCCCCCC(=O)OCC [OAEE, oleic acid ethyl ester]
de novo haploid induction (in words) [1]: triggered de novo haploid induction

CCCCCCCCCCCCCCCC(=O)OCC [PAEE, palmitic acid ethyl ester]
de novo haploid induction (in words) [1]: induces haploids

CCCCC/C=C\C/C=C\C/C=C\C/C=C\CCCC(=O)O [arachidonic acid]
de novo haploid induction (in words) [1]: triggered

CC1=C(CC/C(C)=C/CCC2=CC[C@H](C3=CC(=O)O[C@H]3O)O[C@H]2O)C(C)(C)CCC1 [manoalide, reference compound]
de novo haploid induction (in words) [1]: triggered de novo haploid induction; also recorded: able to induce haploid formation de novo
